This passage reports EC50 results from patent publication US20260265233A1, “BENZOTHIOPHENE DERIVATIVES AS RXFP1 AGONISTS” (BRISTOL-MYERS SQUIBB COMPANY, priority 2021, published 2026).

What is called EC50 is the midpoint of the concentration-response curve.

SMILES strings stand for the structures.

This assay deals with T1, human RXFP1 (Homo sapiens, UniProt Q9HBX9).
T1 construct: expressed in transfected cells
T1 sequence (Q9HBX9 1-757): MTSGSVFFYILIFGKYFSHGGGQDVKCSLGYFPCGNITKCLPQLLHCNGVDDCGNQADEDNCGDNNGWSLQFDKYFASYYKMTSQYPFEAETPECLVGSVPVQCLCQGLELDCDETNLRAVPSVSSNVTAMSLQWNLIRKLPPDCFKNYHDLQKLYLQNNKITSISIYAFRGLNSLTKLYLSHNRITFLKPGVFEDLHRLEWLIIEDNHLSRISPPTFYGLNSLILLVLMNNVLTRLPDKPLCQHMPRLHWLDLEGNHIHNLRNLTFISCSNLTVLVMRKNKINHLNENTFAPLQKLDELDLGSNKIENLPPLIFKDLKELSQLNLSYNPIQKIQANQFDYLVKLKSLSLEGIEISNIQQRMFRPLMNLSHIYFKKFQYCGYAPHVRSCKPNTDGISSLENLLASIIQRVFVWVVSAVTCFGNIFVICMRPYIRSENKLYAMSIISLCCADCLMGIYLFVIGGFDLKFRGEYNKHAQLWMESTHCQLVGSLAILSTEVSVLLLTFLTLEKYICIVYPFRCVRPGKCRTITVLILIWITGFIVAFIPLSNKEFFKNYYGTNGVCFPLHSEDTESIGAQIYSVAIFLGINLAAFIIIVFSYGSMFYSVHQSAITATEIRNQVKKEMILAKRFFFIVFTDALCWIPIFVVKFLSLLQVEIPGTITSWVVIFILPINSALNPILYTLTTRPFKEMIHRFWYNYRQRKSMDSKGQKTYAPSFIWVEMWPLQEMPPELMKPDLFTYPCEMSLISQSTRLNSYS
The assay can be described thus: hRXFP1 HEK293 cAMP assay (HTRF). The assay is classed as cell-based. The conditions noted are these: HEK293 cells stably expressing human RXFP1; 30 min at rt; intracellular cAMP by HTRF. Put shortly:
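HEK293 cells stably expressing human RXFP1 treated 30 min at rt with compound (0.010 nM to 50 μM, 2% DMSO) in HBSS/HEPES buffer with 0.5 mM IBMX. Intracellular cAMP measured by HTRF (665/590 nm ratio) against a cAMP standard curve; potency fitted by 4-parameter logistic.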
A general note: cAMP levels reflect the balance of adenylyl cyclase and phosphodiesterase activity.
Regarding `COc1ccc(C(=O)NCC(C)(C)S(C)(=O)=O)cc1C(=O)Nc1c(C(=O)Nc2ccc(F)c(C(F)(F)F)c2)sc2cc(C(F)(F)F)ccc12` [Example 203, N3-(2-{[4-fluoro-3-(trifluoromethyl)phenyl]carbamoyl}-6-(trifluoromethyl)-1-benzothiophen-3-yl)-N1-(2-methanesulfonyl-2-methylpropyl)-4-methoxybenzene-1,3-dicarboxamide], the EC50 worked out at 36.1 nM.

`COc1ccc(C#CCO)cc1C(=O)Nc1c(C(=O)Nc2ccc(F)c(C(F)(F)F)c2)sc2cc(C3CC3)ncc12` [Example 202, 6-cyclopropyl-N-(4-fluoro-3-(trifluoromethyl)phenyl)-3-(5-(3-hydroxyprop-1-yn-1-yl)-2-methoxy-benzamido) thieno[3,2-c]pyridine-2-carboxamide] gave an EC50 of 1010 nM. Against the preceding compound, the EC50 is about 28-fold higher. For `COc1ccc(S(=O)(=O)N2CCC(C(C)(C)O)CC2)cc1C(=O)Nc1c(C(=O)Nc2ccc(F)c(C(F)(F)F)c2)sc2cc(C(F)(F)F)ccc12` [Example 225, N-(4-fluoro-3-(trifluoromethyl)phenyl)-3-(5-((4-(2-hydroxypropan-2-yl)piperidin-1-yl)sulfonyl)-2-methoxy-benzamido)-6-(trifluoromethyl) benzo[b] thiophene-2-carboxamide] the value was 1060 nM. The result for `COc1ccc(-c2cc([C@@H](C)O)on2)cc1C(=O)Nc1c(C(=O)Nc2ccc(F)c(C(F)(F)F)c2)sc2cc(C(F)(F)F)ccc12` [Example 275, (R)-N-(4-fluoro-3-(trifluoromethyl)phenyl)-3-(5-(5-(1-hydroxyethyl)isoxazol-3-yl)-2-methoxy-benzamido)-6-(trifluoromethyl) benzo[b] thiophene-2-carboxamide] reads 440 nM; that for `COc1ccc(C2CC2C(=O)O)cc1C(=O)Nc1c(C(=O)Nc2ccc(F)c(C(F)(F)F)c2)sc2cc(C(F)(F)F)ccc12` (stereo not shown) [Example 46, 2-(3-((2-((4-fluoro-3-(trifluoromethyl)phenyl)carbamoyl)-6-(trifluoromethyl)benzo[b]thiophen-3-yl)carbamoyl)-4-methoxyphenyl) cyclopropane-1-carboxylic acid], 295 nM. For `COc1ccc(C2CC3CCC(C2)N3CCS(C)(=O)=O)cc1C(=O)Nc1c(C(=O)Nc2ccc(F)c(C(F)(F)F)c2)sc2cc(C(F)(F)F)ccc12` (stereo not shown) [Example 193, N-(4-fluoro-3-(trifluoromethyl)phenyl)-3-(2-methoxy-5-(8-(2-(methylsulfonyl)ethyl)-8-azabicyclo[3.2.1]octan-3-yl)benzamido)-6-(trifluoromethyl) benzo[b] thiophene-2-carboxamide] the value was 300 nM; for `COCCNC(=O)c1ccc(OC)c(C(=O)Nc2c(C(=O)Nc3ccc(F)c(C(F)(F)F)c3)sc3cc(C(F)(F)F)ccc23)c1` [Example 218, N3-(2-((4-fluoro-3-(trifluoromethyl)phenyl)carbamoyl)-6-(trifluoromethyl)benzo[b]thiophen-3-yl)-4-methoxy-N1-(2-methoxyethyl) isophthalamide], 1130 nM; for `COc1ccc(C2=NC(C(=O)N3CC(C(C)(C)O)C3)CO2)cc1C(=O)Nc1c(C(=O)Nc2ccc(F)c(C(F)(F)F)c2)sc2cc(C(F)(F)F)ccc12` (stereo not shown) [Example 281, N-[4-fluoro-3-(trifluoromethyl)phenyl]-3-(5-{4-[3-(2-hydroxypropan-2-yl)azetidine-1-carbonyl]-4,5-dihydro-1,3-oxazol-2-yl}-2-methoxy-benzamido)-6-(trifluoromethyl)-1-benzothiophene-2-carboxamide], 95.1 nM. The compound `COc1ccc(N2CCC(NCCO)C2)cc1C(=O)Nc1c(C(=O)Nc2ccc(F)c(C(F)(F)F)c2)sc2cc(C(F)(F)F)ccc12` (single isomer, unassigned) [Example 9, N-(4-fluoro-3-(trifluoromethyl)phenyl)-3-(5-(3-((2-hydroxyethyl)amino)pyrrolidin-1-yl)-2-methoxybenzamido)-6-(trifluoromethyl) benzo[b]thiophene-2-carboxamide] registered an EC50 of 2380 nM.

Regarding `COc1ccc(N2CCCC(C(=O)NCC(C)(C)O)C2)cc1C(=O)Nc1c(C(=O)Nc2ccc(F)c(C(F)(F)F)c2)sc2cc(C(F)(F)F)ccc12` (single isomer, unassigned) [Example 7, 1-(3-((2-((4-fluoro-3-(trifluoromethyl)phenyl)carbamoyl)-6-(trifluoromethyl)benzo[b]thiophen-3-yl)carbamoyl)-4-methoxyphenyl)-N-(2-hydroxy-2-methylpropyl) piperidine-3-carboxamide], a half-maximal effect (EC50) was put at 661 nM. Compared with the last compound, the EC50 is about 3.6-fold lower. The result for `COc1ccc(N2CCCC(C(=O)NC3COC3)C2)cc1C(=O)Nc1c(C(=O)Nc2ccc(F)c(C(F)(F)F)c2)sc2cc(C(F)(F)F)ccc12` (single isomer, unassigned) [Example 188, 1-(3-((2-((4-fluoro-3-(trifluoromethyl)phenyl)carbamoyl)-6-(trifluoromethyl)benzo[b]thiophen-3-yl)carbamoyl)-4-methoxyphenyl)-N-(oxetan-3-yl)piperidine-3-carboxamide] reads 772 nM; that for `COc1ccc(C(=O)N2CC3(C2)CS(=O)(=O)C3)cc1C(=O)Nc1c(C(=O)Nc2ccc(F)c(C(F)(F)F)c2)sc2cc(C3CC3)ncc12` [Example 29, 6-cyclopropyl-3-(5-(2,2-dioxido-2-thia-6-azaspiro [3.3]heptane-6-carbonyl)-2-methoxybenzamido)-N-(4-fluoro-3-(trifluoromethyl)phenyl) thieno [3,2-c]pyridine-2-carboxamide], 1340 nM; that for `COCCC(=O)N1CCC(c2ccc(OC)c(C(=O)Nc3c(C(=O)Nc4ccc(F)c(C(F)(F)F)c4)sc4cc(C(F)(F)F)ccc34)c2)C1` (stereo not shown) [Example 143, N-(4-fluoro-3-(trifluoromethyl)phenyl)-3-(2-methoxy-5-(1-(3-methoxypropanoyl)pyrrolidin-3-yl)benzamido)-6-(trifluoromethyl) benzo[b] thiophene-2-carboxamide], 1540 nM. For `COc1ccc(C2=NOC3CC(N)CC23)cc1C(=O)Nc1c(C(=O)Nc2ccc(F)c(C(F)(F)F)c2)sc2cc(C(F)(F)F)ccc12` (single isomer, unassigned) [Example 259, 3-(5-{5-amino-3aH,4H,5H,6H, 6aH-cyclopenta[d] [1,2]oxazol-3-yl}-2-methoxy-benzamido)-N-[4-fluoro-3-(trifluoromethyl)phenyl]-6-(trifluoromethyl)-1-benzothiophene-2-carboxamide] the value was 364 nM; for `COc1ccc(C2CCCN(CCS(C)(=O)=O)CC2)cc1C(=O)Nc1c(C(=O)Nc2ccc(F)c(C(F)(F)F)c2)sc2cc(C(F)(F)F)ccc12` (stereo not shown) [Example 71, N-(4-fluoro-3-(trifluoromethyl)phenyl)-3-(2-methoxy-5-(1-(2-(methylsulfonyl)ethyl)azepan-4-yl)benzamido)-6-(trifluoromethyl) benzo[b] thiophene-2-carboxamide], 2710 nM; for `COc1ccc(N2CCCC(C(=O)NCCO)C2)cc1C(=O)Nc1c(C(=O)Nc2ccc(F)c(C(F)(F)F)c2)sc2cc(C(F)(F)F)ccc12` (single isomer, unassigned) [Example 230, 1-(3-((2-((4-fluoro-3-(trifluoromethyl)phenyl)carbamoyl)-6-(trifluoromethyl)benzo[b]thiophen-3-yl)carbamoyl)-4-methoxyphenyl)-N-(2-hydroxyethyl) piperidine-3-carboxamide], 1400 nM. The result for `COc1ccc(C2CCCN(CCS(C)(=O)=O)CC2)cc1C(=O)Nc1c(C(=O)Nc2ccc(F)c(C(F)(F)F)c2)sc2cc(C(F)(F)F)ccc12` (stereo not shown) [Example 74, N-(4-fluoro-3-(trifluoromethyl)phenyl)-3-(2-methoxy-5-(1-(2-(methylsulfonyl)ethyl)azepan-4-yl)benzamido)-6-(trifluoromethyl) benzo[b] thiophene-2-carboxamide] reads 3370 nM; that for `COc1ccc(C2CCCN(C(=O)CN(C)C)C2)cc1C(=O)Nc1c(C(=O)Nc2ccc(F)c(C(F)(F)F)c2)sc2cc(C(F)(F)F)ccc12` (single isomer, unassigned) [Example 87, 3-(5-(1-(dimethylglycyl)piperidin-3-yl)-2-methoxy-benzamido)-N-(4-fluoro-3-(trifluoromethyl)phenyl)-6-(trifluoromethyl) benzo[b] thiophene-2-carboxamide], 1160 nM; that for `COc1ccc(-c2cc(CNCC(C)C)ccc2F)cc1C(=O)Nc1c(C(=O)Nc2ccc(F)c(C(F)(F)F)c2)sc2cc(C(F)(F)F)ccc12` [Example 19, N-(4-fluoro-3-(trifluoromethyl)phenyl)-3-(2′-fluoro-5′-((isobutylamino)methyl)-4-methoxy-[1,1′-biphenyl]-3-carboxamido)-6-(trifluoromethyl) benzo[b]thiophene-2-carboxamide], 1010 nM.
